# Data taken from ChEMBL document CHEMBL4334508, “Oleanolic Acid Derivatives as Potential Inhibitors of HIV-1 Protease” (J Nat Prod, 2019).
# Target: Protease (Human immunodeficiency virus 1, UniProt Q9YQ12)
# Experiment: Inhibition of HIV1 protease expressed in Escherichia coli using Abz-Ala-Arg-Val-Nle-Tyr(NO2)-Glu-Ala-Nle-NH2 peptide as substrate by FRET assay
# Chain of Protease (Q9YQ12 whole entry): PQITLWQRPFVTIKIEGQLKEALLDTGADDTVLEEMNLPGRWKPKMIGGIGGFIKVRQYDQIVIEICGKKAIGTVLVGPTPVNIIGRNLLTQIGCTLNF
row,IC50,SMILES
1,> 50 µM,C[C@H](NC(=O)CCCNC(=O)[C@]12CCC(C)(C)C[C@H]1C1=CC[C@@H]3[C@@]4(C)CC[C@H](OC(=O)CCC(=O)O)C(C)(C)[C@@H]4CC[C@@]3(C)[C@]1(C)CC2)C(=O)O
2,> 50 µM,CCCCCCCCCCCC(=O)O[C@H]1CC[C@]2(C)[C@H]3CC=C4[C@@H]5CC(C)(C)CC[C@]5(C(=O)NCCCCCCCCCCC(=O)N[C@H](C(=O)O)C(C)C)CC[C@@]4(C)[C@]3(C)CC[C@H]2C1(C)C
3,> 50 µM,CCCC(=O)O[C@H]1CC[C@]2(C)[C@H]3CC=C4[C@@H]5CC(C)(C)CC[C@]5(C(=O)NCCCC(=O)NCC(=O)O)CC[C@@]4(C)[C@]3(C)CC[C@H]2C1(C)C
4,20.4 µM,CC1(C)CC[C@]2(C(=O)NCCCC(=O)O)CC[C@]3(C)C(=CC[C@@H]4[C@@]5(C)CC[C@H](OC(=O)CCCC(=O)O)C(C)(C)[C@@H]5CC[C@]43C)[C@@H]2C1
5,> 50 µM,CCC(=O)O[C@H]1CC[C@]2(C)[C@H]3CC=C4[C@@H]5CC(C)(C)CC[C@]5(C(=O)NCCCCCC(=O)NCC(=O)O)CC[C@@]4(C)[C@]3(C)CC[C@H]2C1(C)C
6,> 50 µM,CCCCCC(=O)O[C@H]1CC[C@]2(C)[C@H]3CC=C4[C@@H]5CC(C)(C)CC[C@]5(C(=O)NCCCCCC(=O)NCC(=O)O)CC[C@@]4(C)[C@]3(C)CC[C@H]2C1(C)C
7,> 50 µM,CC(=O)O[C@H]1CC[C@]2(C)[C@H]3CC=C4[C@@H]5CC(C)(C)CC[C@]5(C(=O)NCCCC(=O)N[C@H](C(=O)O)C(C)C)CC[C@@]4(C)[C@]3(C)CC[C@H]2C1(C)C
8,> 50 µM,CC1(C)CC[C@]2(C(=O)NCCCCCC(=O)O)CC[C@]3(C)C(=CC[C@@H]4[C@@]5(C)CC[C@H](OC(=O)c6ccccc6)C(C)(C)[C@@H]5CC[C@]43C)[C@@H]2C1
9,> 50 µM,CC1(C)CC[C@]2(C(=O)NCCCCCCCCCCC(=O)O)CC[C@]3(C)C(=CC[C@@H]4[C@@]5(C)CC[C@H](OC(=O)CCCC(=O)O)C(C)(C)[C@@H]5CC[C@]43C)[C@@H]2C1
10,47.1 µM,CC(=O)O[C@H]1CC[C@]2(C)[C@H]3CC=C4[C@@H]5CC(C)(C)CC[C@]5(C(=O)NCCCCCC(=O)N[C@@H](C)C(=O)O)CC[C@@]4(C)[C@]3(C)CC[C@H]2C1(C)C
11,> 50 µM,CCCC(=O)O[C@H]1CC[C@]2(C)[C@H]3CC=C4[C@@H]5CC(C)(C)CC[C@]5(C(=O)NCCCCCCCCCCC(=O)NCC(=O)O)CC[C@@]4(C)[C@]3(C)CC[C@H]2C1(C)C
12,> 50 µM,CC1(C)CC[C@]2(C(=O)NCCCCCCCCCCC(=O)NCC(=O)O)CC[C@]3(C)C(=CC[C@@H]4[C@@]5(C)CC[C@H](OC(=O)CCC(=O)O)C(C)(C)[C@@H]5CC[C@]43C)[C@@H]2C1
13,2.3 µM,CC1(C)CC[C@]2(C(=O)NCCCCCCCCCCC(=O)NCC(=O)O)CC[C@]3(C)C(=CC[C@@H]4[C@@]5(C)CC[C@H](OC(=O)c6ccccc6C(=O)O)C(C)(C)[C@@H]5CC[C@]43C)[C@@H]2C1
14,> 50 µM,CCC(=O)O[C@H]1CC[C@]2(C)[C@H]3CC=C4[C@@H]5CC(C)(C)CC[C@]5(C(=O)NCCCC(=O)NCC(=O)O)CC[C@@]4(C)[C@]3(C)CC[C@H]2C1(C)C
15,17.7 µM,CC1(C)CC[C@]2(C(=O)NCCCC(=O)O)CC[C@]3(C)C(=CC[C@@H]4[C@@]5(C)CC[C@H](OC(=O)CCC(=O)O)C(C)(C)[C@@H]5CC[C@]43C)[C@@H]2C1
16,> 50 µM,C[C@H](NC(=O)CCCCCCCCCCNC(=O)[C@]12CCC(C)(C)C[C@H]1C1=CC[C@@H]3[C@@]4(C)CC[C@H](OC(=O)CC(C)(C)CC(=O)O)C(C)(C)[C@@H]4CC[C@@]3(C)[C@]1(C)CC2)C(=O)O
17,> 50 µM,CC1(C)CC[C@]2(C(=O)NCCCCCCCCCCC(=O)NCC(=O)O)CC[C@]3(C)C(=CC[C@@H]4[C@@]5(C)CC[C@H](OC(=O)c6ccccc6)C(C)(C)[C@@H]5CC[C@]43C)[C@@H]2C1
18,> 50 µM,C[C@H](NC(=O)CCCCCCCCCCNC(=O)[C@]12CCC(C)(C)C[C@H]1C1=CC[C@@H]3[C@@]4(C)CC[C@H](OC(=O)c5ccccc5)C(C)(C)[C@@H]4CC[C@@]3(C)[C@]1(C)CC2)C(=O)O

row,IC50,SMILES
1,38.8 µM,CC(C)(CC(=O)O)CC(=O)O[C@H]1CC[C@]2(C)[C@H]3CC=C4[C@@H]5CC(C)(C)CC[C@]5(C(=O)NCCCCCC(=O)NCC(=O)O)CC[C@@]4(C)[C@]3(C)CC[C@H]2C1(C)C
2,> 50 µM,CC(C)[C@H](NC(=O)CCCCCCCCCCNC(=O)[C@]12CCC(C)(C)C[C@H]1C1=CC[C@@H]3[C@@]4(C)CC[C@H](OC(=O)CCCC(=O)O)C(C)(C)[C@@H]4CC[C@@]3(C)[C@]1(C)CC2)C(=O)O
3,> 50 µM,CCCCCC(=O)O[C@H]1CC[C@]2(C)[C@H]3CC=C4[C@@H]5CC(C)(C)CC[C@]5(C(=O)NCCCCCCCCCCC(=O)N[C@H](C(=O)O)C(C)C)CC[C@@]4(C)[C@]3(C)CC[C@H]2C1(C)C
4,> 50 µM,CC(=O)O[C@H]1CC[C@]2(C)[C@H]3CC=C4[C@@H]5CC(C)(C)CC[C@]5(C(=O)NCCCCCC(=O)O)CC[C@@]4(C)[C@]3(C)CC[C@H]2C1(C)C
5,31 µM,CCC(=O)O[C@H]1CC[C@]2(C)[C@H]3CC=C4[C@@H]5CC(C)(C)CC[C@]5(C(=O)NCCCCCC(=O)N[C@@H](C)C(=O)O)CC[C@@]4(C)[C@]3(C)CC[C@H]2C1(C)C
6,> 50 µM,CCCCCC(=O)O[C@H]1CC[C@]2(C)[C@H]3CC=C4[C@@H]5CC(C)(C)CC[C@]5(C(=O)NCCCCCCCCCCC(=O)N[C@@H](C)C(=O)O)CC[C@@]4(C)[C@]3(C)CC[C@H]2C1(C)C
7,> 50 µM,CCCCCCCCCCCC(=O)O[C@H]1CC[C@]2(C)[C@H]3CC=C4[C@@H]5CC(C)(C)CC[C@]5(C(=O)NCCCCCC(=O)NCC(=O)O)CC[C@@]4(C)[C@]3(C)CC[C@H]2C1(C)C
8,> 50 µM,CCCCCCCCCCCC(=O)O[C@H]1CC[C@]2(C)[C@H]3CC=C4[C@@H]5CC(C)(C)CC[C@]5(C(=O)NCCCC(=O)O)CC[C@@]4(C)[C@]3(C)CC[C@H]2C1(C)C
9,> 50 µM,CCCC(=O)O[C@H]1CC[C@]2(C)[C@H]3CC=C4[C@@H]5CC(C)(C)CC[C@]5(C(=O)NCCCC(=O)N[C@H](C(=O)O)C(C)C)CC[C@@]4(C)[C@]3(C)CC[C@H]2C1(C)C
10,> 50 µM,CCCCCC(=O)O[C@H]1CC[C@]2(C)[C@H]3CC=C4[C@@H]5CC(C)(C)CC[C@]5(C(=O)NCCCCCC(=O)N[C@H](C(=O)O)C(C)C)CC[C@@]4(C)[C@]3(C)CC[C@H]2C1(C)C
11,> 50 µM,CC(=O)O[C@H]1CC[C@]2(C)[C@H]3CC=C4[C@@H]5CC(C)(C)CC[C@]5(C(=O)NCCCCCCCCCCC(=O)NCC(=O)O)CC[C@@]4(C)[C@]3(C)CC[C@H]2C1(C)C
12,> 50 µM,CC1(C)CC[C@]2(C(=O)NCCCCCCCCCCC(=O)O)CC[C@]3(C)C(=CC[C@@H]4[C@@]5(C)CC[C@H](OC(=O)CCC(=O)O)C(C)(C)[C@@H]5CC[C@]43C)[C@@H]2C1
13,38.8 µM,C[C@H](NC(=O)CCCCCNC(=O)[C@]12CCC(C)(C)C[C@H]1C1=CC[C@@H]3[C@@]4(C)CC[C@H](OC(=O)CCCC(=O)O)C(C)(C)[C@@H]4CC[C@@]3(C)[C@]1(C)CC2)C(=O)O
14,33.3 µM,CC(C)(CC(=O)O)CC(=O)O[C@H]1CC[C@]2(C)[C@H]3CC=C4[C@@H]5CC(C)(C)CC[C@]5(C(=O)NCCCC(=O)O)CC[C@@]4(C)[C@]3(C)CC[C@H]2C1(C)C
15,1 µM,CC1(C)CC[C@]2(C(=O)NCCCCCC(=O)O)CC[C@]3(C)C(=CC[C@@H]4[C@@]5(C)CC[C@H](OC(=O)CCCC(=O)O)C(C)(C)[C@@H]5CC[C@]43C)[C@@H]2C1
16,46.3 µM,CC(C)[C@H](NC(=O)CCCNC(=O)[C@]12CCC(C)(C)C[C@H]1C1=CC[C@@H]3[C@@]4(C)CC[C@H](OC(=O)CC(C)(C)CC(=O)O)C(C)(C)[C@@H]4CC[C@@]3(C)[C@]1(C)CC2)C(=O)O
17,> 50 µM,CCC(=O)O[C@H]1CC[C@]2(C)[C@H]3CC=C4[C@@H]5CC(C)(C)CC[C@]5(C(=O)NCCCCCCCCCCC(=O)N[C@H](C(=O)O)C(C)C)CC[C@@]4(C)[C@]3(C)CC[C@H]2C1(C)C
18,> 50 µM,CCCCCCCCCCCC(=O)O[C@H]1CC[C@]2(C)[C@H]3CC=C4[C@@H]5CC(C)(C)CC[C@]5(C(=O)NCCCC(=O)N[C@@H](C)C(=O)O)CC[C@@]4(C)[C@]3(C)CC[C@H]2C1(C)C
